Values after ≈ are worked out from the molar mass of the structure shown. Active and inactive are the calls of the source.

Data set [1] is described as follows: Apparent permeability across MDCK cells. Type of data set: ADME, cell-based, Canis lupus familiaris. To be noted: dog.
In data set [2] the target is T1, Heat shock protein HSP90 (Homo sapiens, UniProt P07900+P08238). The experiment in a line: Inhibition of Hsp90 in human A549 cells assessed as Raf1 degradation after 24 hrs by Western blot analysis. It counts as cell-based. Background: In western blotting, separated proteins are transferred to a membrane and probed.
Data set [3] concerns the target T1, Heat shock protein HSP90. Nature of the data set: Inhibition of Hsp90 in human NCI-N87 cells assessed as Her2 degradation after 24 hrs by Western blot analysis. It counts as cell-based.
Data set [4] in a line: Oral bioavailability in rat at 2.5 mg/kg. Type of data set: ADME, organism-based. The settings on record: in vivo.
Data set [5] is described as follows: Half life in rat at 2.5 mg/kg, iv. It counts as ADME, organism-based. Further details: dose 2.5 mg/kg, route intravenous. To be noted: in vivo.
For data set [6], the system named is Rattus norvegicus. The experiment in a line: Dose normalized AUC in rat at 2.5 mg/kg, iv. It counts as ADME, organism-based. Further details: dose 2.5 mg/kg, route intravenous. The settings on record: in vivo.
Data set [7] is described as follows: Clearance in rat at 2.5 mg/kg, iv. The settings on record: in vivo. Type of data set: ADME, organism-based. Further details: dose 2.5 mg/kg, route intravenous.
In data set [8] the target is T1, Heat shock protein HSP90. Nature of the data set: Displacement of biotinylated geldanamycin from human His-tagged Hsp90 by TR-FRET assay. It counts as protein assay.
Data set [9] relates to Mus musculus. Nature of the data set: Inhibition of Hsp90 in human COLO205 cells xenografted in mouse assessed as Her2 degradation at 100 mg/kg administered QD for 2 days measured 8 hrs post-last dose. It counts as functional. To be noted: COLO 205.
Data set [10] has as its system Mus musculus. Nature of the data set: Inhibition of Hsp90 in human COLO205 cells xenografted in mouse assessed as Raf1 degradation at 100 mg/kg administered QD for 2 days measured 8 hrs post-last dose. To be noted: COLO 205. Type of data set: functional. For orientation: Xenograft models place foreign cells or tissue in a host animal.
Data set [11] in a line: Clearance in iv dosed rat. It counts as ADME, organism-based. The settings on record: in vivo.
Data set [12] in a line: Half life in rat at 5 mg/kg, iv. Type of data set: ADME, organism-based. Further details: dose 5 mg/kg, route intravenous. The settings on record: in vivo.
Data set [13] in a line: Oral bioavailability in rat at 5 mg/kg. Type of data set: ADME, organism-based. The settings on record: in vivo.
Data set [14] relates to Rattus norvegicus. The experiment in a line: Dose normalized AUC in rat at 5 mg/kg, iv. Type of data set: ADME, organism-based. The settings on record: in vivo. Set-up: dose 5 mg/kg, route intravenous.
The nature of data set [15]: Clearance in rat at 5 mg/kg, iv. It counts as ADME, organism-based. Set-up: dose 5 mg/kg, route intravenous. To be noted: in vivo.
Data set [16] is described as follows: Kinetic solubility of the compound. To be noted: read-out: Kinetic_solubility. It counts as physicochemical.
Data set [17] can be described thus: Drug metabolism in human liver microsomes at 15 uM after 30 mins. The settings on record: read-out: Drug metabolism. It counts as ADME, Microsome.
The nature of data set [18]: Drug metabolism in mouse liver microsomes at 15 uM after 30 mins. It counts as ADME, Microsome. The settings on record: read-out: Drug metabolism. (In general: Liver microsomes are vesicles of endoplasmic reticulum, rich in cytochrome P450 enzymes.)

The term Papp denotes the rate of passage across a membrane or cell layer, normalised by area and donor concentration. As usually defined, the IC50 is the concentration that inhibits the measured activity by half. Regarding `Cc1cc(C(=O)NC2CC3CCC(C2)N3c2ccc(C(=O)NCc3ccccc3)cn2)c(C)cc1C(N)=O` (stereo unspecified), the Papp in [1] worked out at 30 nm/s. In addition, the IC50 on Heat shock protein HSP90 [2] was > 10 µM.

A word on the bioavailability: it is dose-corrected exposure relative to a reference, in per cent. Low readings indicate poor availability, high ones good availability. For orientation: half-life means the time needed for the level to fall by half in the phase considered. Read a high half-life as slow loss. By clearance is commonly meant the rate of elimination divided by the concentration. Read a low clearance as a low capacity for elimination. Regarding `Cc1cc(C(N)=O)c(NC2CCCC2)cc1C(=O)NC1CC2CCC(C1)N2c1ccc(C(=O)C2CC2)cn1` (stereo unspecified), the half-inhibitory concentration (IC50) at Heat shock protein HSP90 [3] amounted to 0.316 µM; at Heat shock protein HSP90 [8] it was 0.027 µM. In data set [4], this molecule returned a bioavailability of 28%. Further, the half-life in [5] was 1.1 h. Moreover, the AUC/dose with Rattus norvegicus [6] was 2.26 µM·kg·h/mg. In data set [7], this molecule gave a clearance of 0.87 L/h/kg. Also, the Papp in data set [1] was determined as 146 nm/s.

In the case of `Cc1cc(C(N)=O)c(NC(C)C)cc1C(=O)NC1CC2CCC(C1)N2c1ccc(C(=O)C2CC2)cn1` (stereo unspecified), the IC50 stood at 0.13 µM at Heat shock protein HSP90 [3] and 0.021 µM at Heat shock protein HSP90 [8]. Also, the bioavailability in data set [4] came to 33%. In [5], this molecule had a half-life of 1.5 h. In the data set with Rattus norvegicus [6], this molecule yielded an AUC/dose of 0.57 µM·kg·h/mg. Besides, in data set [7], the clearance is 3.79 L/h/kg. Besides, the Papp in data set [1] was 206 nm/s.

Usually inhibition in vivo stands for the percentage by which the read-out fell short of the control. Take `CO[C@H]1/C=C\C=C(/C)C(=O)NC2=CC(=O)C(NCCN(C)C)=C(C[C@@H](C)C[C@H](OC)[C@H](O)[C@@H](C)/C=C(\C)[C@@H]1OC(N)=O)C2=O` [ALVESPIMYCIN]: the inhibition result in the data set on Mus musculus [9] was “inactive”. In the data set on Mus musculus [10], the inhibition in vivo at 100 mg/kg amounted to 84%.

With `CC(C)C(=O)c1ccc(N2C3CCC2CC(NC(=O)c2ccc(C(N)=O)c(NCC4CC4)c2)C3)nc1` (stereo unspecified), the IC50 at Heat shock protein HSP90 [3] amounted to 1.61 µM; on Heat shock protein HSP90 [8] it was 1.14 µM.

As to `Cc1cc(C(N)=O)ccc1C(=O)NC1CC2CCC(C1)N2c1ccc(C(=O)NCc2ccccc2)cn1` (stereo unspecified), the apparent permeability coefficient (Papp) in data set [1] worked out at 2.1 nm/s. Also, the IC50 at Heat shock protein HSP90 [2] came to 2.7 µM; on Heat shock protein HSP90 [8], 0.598 µM.

In the case of `C[C@H](NC(=O)c1ccc(N2C3CCC2CC(NC(=O)c2ccc(C(N)=O)c(NCC4CC4)c2)C3)nc1)c1ccc(N2CCN(C)CC2)cc1` (stereo partly specified), in [11], the clearance was 9.41 L/h/kg. Further, in data set [1], the Papp came out at 1.5 nm/s. For the same molecule, the half-inhibitory concentration (IC50) on Heat shock protein HSP90 [2] amounted to 0.042 µM; at Heat shock protein HSP90 [8], 0.08 µM.

Take `CCC(CC)Nc1cc(C(=O)NC2CC3CCC(C2)N3c2ccc(C(=O)C3CC3)cn2)ccc1C(N)=O` (stereo unspecified): the IC50 on Heat shock protein HSP90 [3] was determined as 0.117 µM; at Heat shock protein HSP90 [8], 0.086 µM. The molecule further had a half-life in data set [12] of 0.5 h. This molecule also returned a bioavailability in data set [13] of 11%. In the data set on Rattus norvegicus [14], this molecule returned an AUC/dose of 0.78 µM·kg·h/mg. For the same molecule, in [15], the clearance was 2.38 L/h/kg. In data set [1], the Papp was found to be 141 nm/s.

For `COc1cccc(C(=O)NC2CC3CCC(C2)N3c2ccc(C(=O)NCc3ccccc3)cn2)c1C` (stereo unspecified), the bioavailability in data set [4] was found to be 4%. Moreover, the half-life in data set [5] is 0.72 h. In the data set with Rattus norvegicus [6], this molecule displayed an AUC/dose of 0.9 µM·kg·h/mg. In [7], the clearance was 2.28 L/h/kg. Further, in data set [1], the apparent permeability coefficient (Papp) turned out to be 505 nm/s. Also, the solubility kinetic in data set [16] came to 4.1 µM (≈ 1.99 µg/mL). Further, the metabolised at 0.5 h, 15 µM was 64% in data set [17] and 79% in [18].

Regarding `NC(=O)c1ccc(C(=O)NC2CC3CCC(C2)N3c2ccc(C(=O)NCc3ccccc3)cn2)cc1` (stereo unspecified), the Papp in data set [1] is 0.6 nm/s. Besides, the half-inhibitory concentration (IC50) on Heat shock protein HSP90 [2] worked out at 5.2 µM; at Heat shock protein HSP90 [8] it was 0.445 µM.

For the molecule `CCNC(=O)c1ccc(N2C3CCC2CC(NC(=O)c2ccc(C(N)=O)c(NCC4CC4)c2)C3)nc1` (stereo unspecified), the values for the IC50 at Heat shock protein HSP90 [3] and on Heat shock protein HSP90 [8] were 2.17 µM and 0.104 µM, respectively. For the same molecule, in data set [1], the apparent permeability (Papp) amounted to 324 nm/s.

As for `C[C@H](NC(=O)c1ccc(N2C3CCC2CC(NC(=O)c2ccc(C(N)=O)c(Nc4ccccc4)c2)C3)nc1)c1ccc(N2CCN(C)CC2)cc1` (stereo partly specified), the apparent permeability coefficient (Papp) in [1] was found to be 3.2 nm/s. In addition, the concentration for half-maximal inhibition (IC50) on Heat shock protein HSP90 [2] was determined as 0.105 µM; at Heat shock protein HSP90 [8] it was 0.26 µM.

Regarding `COc1cccc(C(=O)NC2CC3CCC(C2)N3c2ccc(C(=O)N[C@H](C)c3ccccc3)cn2)c1C` (stereo partly specified), the IC50 is > 10 µM on Heat shock protein HSP90 [2] and 7.45 µM at Heat shock protein HSP90 [8].

Regarding `Cc1cc(C(N)=O)c(NCC2CC2)cc1C(=O)NC1CC2CCC(C1)N2c1ccc(C(=O)C2CC2)cn1` (stereo unspecified), the IC50 on Heat shock protein HSP90 [3] came out at 0.245 µM; at Heat shock protein HSP90 [8], 0.025 µM. For the same molecule, in [4], the bioavailability was 51%. Moreover, in data set [5], the half-life was 0.9 h. In addition, in the data set on Rattus norvegicus [6], the AUC/dose was found to be 1.7 µM·kg·h/mg. This molecule also showed a clearance in data set [7] of 1.18 L/h/kg. The apparent permeability coefficient (Papp) in data set [1] stood at 223 nm/s.

For `CCC(CC)Nc1cc(C(=O)NC2CC3CCC(C2)N3c2ccc(C(C)=O)cn2)c(C)cc1C(N)=O` (stereo unspecified), the IC50 on Heat shock protein HSP90 [3] was 0.044 µM; at Heat shock protein HSP90 [8] it was 0.028 µM. Further, the half-life in data set [12] is 1.7 h. Further, the bioavailability in data set [13] was 4%. This molecule also came in with an AUC/dose in the data set with Rattus norvegicus [14] of 0.6 µM·kg·h/mg. The clearance in data set [15] was 3.11 L/h/kg.

Source of the values: ChEMBL document CHEMBL2203134, “Discovery of XL888: a novel tropane-derived small molecule inhibitor of HSP90” (Bioorg Med Chem Lett, 2012).
